From patent US20230355596A1, “COMPOSITIONS AND METHODS OF USING NMDAR INHIBITORS AND KINASE INHIBITORS TO TREAT LIVER CANCER” (The University of Hong Kong, priority 2022, published 2023)
Like-named read-outs stand apart in the source and are kept apart here.

How the values were obtained:
pancreatic cancer cells = details: cited from earlier work
NMDAR subunits = details: cited from earlier work
MHCC97L cells = assay: MTT cell viability assay and drug interaction analysis; assay type: cell-based, human; details: single drug
HCC patients [1] = details: phase III, first line; cited from earlier work
HCC patients [2] = details: phase III BRISK-PS, secondary treatment; cited from earlier work
HCC patients [3] = details: phase II, cited from earlier work
advanced HCC patients = details: 28 patients; cited from earlier work
HCC patients [4] = details: single arm phase II; cited from earlier work
HCC patients [5] = details: phase III versus sorafenib; cited from earlier work

For `C[C@]12N[C@H](Cc3ccccc31)c1ccccc12` [MK-801, Dizocilpine (MK-801)], the “tumor growth and invasiveness of pancreatic cancer cells” value (pancreatic cancer cells) is listed as “reduced tumor growth and invasiveness”, the NMDAR subunit selectivity (NMDAR subunits) is listed as “blocks all NMDAR subunits in a non-selective manner” and the “toxicity / safety as therapeutic agent” value (NMDAR subunits) is listed as “poses high toxicity and is less tolerated”. The “HCC growth, NMDAR inhibitor alone” value (MHCC97L cells) was “did not significantly suppress”.

For `Cc1cc2c(F)c(Oc3ncnn4cc(OC[C@@H](C)O)c(C)c34)ccc2[nH]1` [brivanib], the Median survival (HCC patients [1]) is listed as 9.5 months, the discontinuation rate (HCC patients [1]) is listed as 43% and the “median length of overall survival” value (HCC patients [2]) is listed as 9.4 months. The median overall survival (HCC patients [3]; first line) was 10 months and the median overall survival (HCC patients [3]; second line) was 9.5 months.

For `CO[C@H]1C[C@@H]2CC[C@@H](C)[C@@](O)(O2)C(=O)C(=O)N2CCCC[C@H]2C(=O)O[C@H]([C@H](C)C[C@@H]2CC[C@@H](OCCO)[C@H](OC)C2)CC(=O)[C@H](C)/C=C(\C)[C@@H](O)[C@@H](OC)C(=O)[C@H](C)C[C@H](C)/C=C/C=C/C=C/1C` [everolimus], the “median progression free survival” value (advanced HCC patients) is listed as 3.8 months and the overall survival (advanced HCC patients) is listed as 8.4 months.

For `Cc1ccc(F)c(NC(=O)Nc2ccc(-c3cccc4[nH]nc(N)c34)cc2)c1` [linifanib], the safety profile (HCC patients [4]) is listed as “acceptable safety profile”.

For `CCN(CC)CCNC(=O)c1c(C)[nH]c(/C=C2\C(=O)Nc3ccc(F)cc32)c1C` [sunitinib], the trial outcome (HCC patients [5]) is listed as “terminated early due to increased side effects and futility concerns”.
